One data set has as its target T1, human IGF-1R (Homo sapiens, UniProt P08069).
T1 construct: IGFRK and IRK enzyme used for the assay was intracellular kinase domain of human IGF-1R and human IR; made in house
Description: In vitro IGF-1R kinase assay (HTRF). The class given is biochemical. As to conditions: intracellular kinase domain GST fusion, ATP 20 μM, 1 hour at 23° C., read-out: IGFIR-Activity. On the procedure: The in vitro kinase assays using IGF-1R and IR kinase GST fusion proteins were conducted using a homogeneous time-resolved fluorescence (HTRF) format. […] The standard enzyme reaction buffer consisted of 50 mM Tris HCL (pH: 7.4), 1 mM EGTA, 10 mM MgCl2, 2 mM DTT, 0.01% Tween-20, IGF-1R/IR kinase enzyme, poly GT peptide substrate (Perkin Elmer [Ulight Glu-Tyr (4:1)]n) and ATP [concentration equivalent to Kmapp]. […] Briefly, 2.5 μL enzyme and 2.5 μL inhibitor was pre-incubated for 10 minutes at 23° C. followed by the addition of 2.5 μL of poly GT substrate (final concentration of 50 nM). Reaction was initiated with the addition of 2.5 μL of ATP (final concentration of 20 μM for IGF-1R assay and 10 μM for IR assay). After 1 hour incubation at 23° C., the kinase reaction was stopped with the addition of 5 μL EDTA (final concentration of 10 mM in 20 μL). Europium cryptate—labeled antiphosphotyrosine antibody PY20 (5 μL) was added (final concentration of 2 nM) and the mixture was allowed to equilibrate for 1 hour at 23° C. followed by reading the plate in an Envision plate reader. The intensity of light emission at 665 nm was directly proportional to the level of substrate phosphorylation. The IC50 values for inhibitors were determined by a four-parameter sigmoidal curve fit (Sigma plot or Graph pad).
IGFRK and IRK enzyme used for the assay was intracellular kinase domain of human IGF-1R and human IR cloned and expressed as GST fusion proteins using the baculovirus expression system and purified using glutathione—Sepharose column.
Background: TR-FRET usually uses a lanthanide donor and a delayed reading to cut background.

For a further data set, the system named is HT29 cell line. Description: Anti-proliferative assay (MTS/CCK-8), HT29. The class given is cell-based. The note with it: Homo sapiens, HT-29; HT29 (colon cancer) cells, 100 ng/mL IGF without FCS, 72 hours; read-out: Anti-proliferation IC50 (μM) HT29 cell line. On the procedure:
(§1) Anti-proliferative potential of compounds was tested using various cell lines (details provided in Table 2) by MTS (Promega, Cat # G1111), a tetrazolium compound ((3-(4,5-dimethylthiazol-2-yl)-5-(3-carboxymethoxyphenyl)-2-(4-sulphophenyl)-2H-tetrazolium, inner salt; MTS) and Cell Counting kit-8 (CCK-8 a Dojindo's highly water-soluble tetrazolium salt of WST-8 [2-(2-methoxy-4-nitrophenyl)-3-(4-nitrophenyl)-5-(2,4-disulfophenyl)-2H-tetrazolium, monosodium salt]). MTS is a colorimetric assay for determining the number of viable cells in proliferation, cytotoxicity or chemosensitivity assays. This is used with an electron coupling reagent PMS (Phenazine methosulfate). MTS is bioreduced by cells into a formazan that is soluble in tissue culture medium. The absorbance of the formazan at 490 nm can be measured directly from 96 well assay plates without additional processing. Dehydrogenase enzymes found in metabolically active cells accomplish the conversion of MTS into the aqueous soluble formazan. The quantity of formazan product is directly proportional to the number of living cells in culture. In CCK-8, WST-8 is reduced by dehydrogenases in cells to give a yellow colored product formazan, which is measured at 450 nm.
(§2) For experimental purposes, cells were seeded at a density of 3000-5000 cells per well in 180 μL/well volume in transparent 96 well tissue culture plate (NUNC, USA) and incubated overnight at 37° C., 5% CO2. […] Plates were incubated for 3-4 hours and absorbance was measured at 490 nm on Spectrophotometer (SpectraMax, Molecular Devices). Percentage cytotoxicity and IC50 was calculated using SoftMax software. […] After 4 hour incubation, the absorbance was determined at 450 nm using Spectrophotometer (SpectraMax, Molecular Devices). […]

Another data set concerns MCF7 cell line. Description: Anti-proliferative assay (MTS/CCK-8), MCF7. The note with it: Homo sapiens; MCF7 (breast cancer) cells, 100 ng/mL IGF without FCS, 72 hours; read-out: Anti-proliferation IC50 (μM) MCF7 cell line. The class given is cell-based. As for the experimental part:
as §1, §2

Another data set has as its target T2, CYP3A4 (Homo sapiens, UniProt P08684).
T2 construct: purchased Invitrogen (Vivid screening kits)
Description: CYP inhibition fluorescence assay (rhCYP450, Vivid Invitrogen kit). The class given is in vitro ADME. The note with it: recombinant human CYP3A4, 10 μM compound, read-out: % inhibition of CYP 3A4 at 10 μM. As for the experimental part: The % inhibition @ 10 μM data was generated from an rhCYP450/fluorescence assay according to the Vivid Invitrogen screening kits. The compounds were screened against CYP 3A4 isoform because CYP3A4 is responsible for the metabolism of approximately 50-60% of clinical drugs. The lower the percentage inhibition, the lower the CYP450 inhibitory liability of that specific compound.

What is called inhibition is the percentage by which the read-out fell short of the control.

T1 sequence (P08069 999-1274 limits assumed): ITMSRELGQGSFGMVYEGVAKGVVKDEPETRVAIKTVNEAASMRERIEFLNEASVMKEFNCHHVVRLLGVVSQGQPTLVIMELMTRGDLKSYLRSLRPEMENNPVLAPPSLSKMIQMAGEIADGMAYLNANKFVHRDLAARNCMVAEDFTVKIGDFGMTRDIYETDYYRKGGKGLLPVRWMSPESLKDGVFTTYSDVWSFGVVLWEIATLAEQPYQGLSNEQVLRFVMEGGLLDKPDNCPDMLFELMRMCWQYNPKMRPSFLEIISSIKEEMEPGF
T2 sequence (P08684 whole entry): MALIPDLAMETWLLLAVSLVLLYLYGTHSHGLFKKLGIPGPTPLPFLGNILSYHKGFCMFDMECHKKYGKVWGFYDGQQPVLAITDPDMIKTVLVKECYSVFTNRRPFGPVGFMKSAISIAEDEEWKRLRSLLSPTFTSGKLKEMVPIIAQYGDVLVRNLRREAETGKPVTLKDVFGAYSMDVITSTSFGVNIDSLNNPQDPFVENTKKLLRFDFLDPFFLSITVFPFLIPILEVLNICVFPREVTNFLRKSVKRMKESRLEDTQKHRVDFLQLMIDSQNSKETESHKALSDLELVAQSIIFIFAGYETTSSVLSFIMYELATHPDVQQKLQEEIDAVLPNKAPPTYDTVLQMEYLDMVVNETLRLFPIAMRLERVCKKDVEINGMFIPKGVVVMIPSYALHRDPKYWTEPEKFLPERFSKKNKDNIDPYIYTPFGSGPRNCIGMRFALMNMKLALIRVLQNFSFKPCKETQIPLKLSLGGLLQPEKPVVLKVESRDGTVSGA

For the compound `N#CCCNc1cc(Cl)cc2c(S(=O)(=O)N3CCO[C@H](COc4ccccc4)C3)c(C(N)=O)[nH]c12` [Compound 19, (S)-5-chloro-7-(2-cyanoethylamino)-3-(2-(phenoxymethyl)morpholinosulfonyl)-1H-indole-2-carboxamide], the IC50 at human IGF-1R is 16 nM; in the data set on HT29 cell line, 5.3 µM; in the data set on MCF7 cell line, less than 1 µM.
As to `NC(=O)c1[nH]c2c(NC3CCOCC3)cc(Cl)cc2c1S(=O)(=O)N1CCO[C@H](COc2ccccc2)C1` [Compound 20, (S)-5-chloro-3-(2-(phenoxymethyl)morpholinosulfonyl)-7-(tetrahydro-2H-pyran-4-ylamino)-1H-indole-2-carboxamide], the IC50 at human IGF-1R was less than 100 nM; in the data set on HT29 cell line it was 2.8 µM; with MCF7 cell line, 0.8 µM.
With `CCOC(=O)N1CCC(Nc2cc(Cl)cc3c(S(=O)(=O)N4CCO[C@H](COc5ccccc5)C4)c(C(N)=O)[nH]c23)CC1` [Compound 34, (S)-ethyl 4-(2-carbamoyl-5-chloro-3-(2-(phenoxymethyl)morpholinosulfonyl)-1H-indol-7-ylamino)piperidine-1-carboxylate], the IC50 on human IGF-1R was 68.5 nM; with HT29 cell line, 1.7 µM; in the data set with MCF7 cell line, 0.9 µM. In addition, the inhibition at 10 µM on CYP3A4 is 47%.

These data come from patent publication US20140045832A1, “Insulin-Like Growth Factor-1 Receptor Inhibitors” (PIRAMAL ENTERPRISES LIMITED, priority 2011, published 2014).
